Source: patent US20250032580A1, “USE OF ADNF POLYPEPTIDES IN THERAPY” (RAMOT AT TEL-AVIV UNIVERSITY LTD., priority 2021, published 2025)

Legend:
SHANK3 mice = assay: Grooming (repetitive behavior); assay type: in vivo, mouse; conditions: sham-treated vs NAP-treated SHANK3 mice; data not shown
Procedure: Repetitive behavior, a key autistic feature, was also evaluated by measuring grooming frequency and duration.

Tyr mice = assay: CatWalk gait analysis; assay type: in vivo, mouse; design: key to NAP efficacy: motor impediments: corrections by NAP treatment (+)
Procedure: Animals—Animals were housed under a 12-hour light/dark cycle, with food and water ad-libitum. Mouse pups were subcutaneously administrated with NAP [having an amino acid sequence NAPVSIPQ (SEQ ID NO: 2), 25 μg NAP/1 ml saline] as described (8, 12). At 21 days of age mice were administered daily intranasal NAP in vehicle solution (“DD”—7.5 mg/ml of NaCl, 1.7 mg/ml of citric acid, 3 mg/ml of disodium phosphate dihydrate, and 0.2 mg/ml of 50% benzalkonium chloride solution) (0.5 μg NAP/5p1 DD) (8, 9, 12, and U.S. Pat. No. 10,912,819 to Gozes). These mice continued to behavioral analysis as described hereinbelow. The noninvasive intranasal route was chosen as these experiments required daily handling and administration. Age (weeks) of mice during behavioral experiments (mean±SEM) was as follows: Catwalk-9.23±0.15, grooming-10±0.15, social approach-10.5±0.12, odor-discrimination-12.12±0.13, hanging-wire-13±0.14, hotplate-13.18±0.13. Group size was determined following previous experiments (12). Pups were randomly allocated to either the NAP or DD group according to sex and genotype. All procedures involving animals were conducted under the supervision and approval of the institutional animal care and use committee of Tel Aviv University and the Israeli Ministry of Health.
Catwalk—Was performed as previously described (12).
CatWalk: Briefly, The CatWalk XT (Noldus Inc. Leesburg, VA) was used to analyze the gait of unforced, moving mice^10 Mice had to cross the runway of the CatWalk XT apparatus in a consistent manner, and a successful run was defined when an animal ran the track without any interruption or hesitation. Every mouse was tested until 3 successful runs were achieved.
Base of support is the average width between either the front paws or the hind paws. Swing (sec) or swing phase is the duration in seconds of no contact of a paw with the glass plate. Swing Speed is the speed (Distance Unit/second) of the paw during Swing. Max Contact Max Intensity is the maximum Intensity at Max Contact of a paw. Intensity ranges from 0 to 255 in arbitrary units. The intensity of a print depends on the degree of contact between a paw and the glass plate and increases with increasing weight. Therefore, Intensity is a measure of weight put on the glass plate.
The Intensity parameter is used to assess the effects of neuropathic pain, including mechanical allodynia. Max Contact Mean Intensity is the mean Intensity of a paw at Max Contact. Print length is the length (horizontal direction) of the complete print. The complete print is the sum of all contacts with the glass plate, as if the animal's paw would have been inked. Print width is the width (vertical direction) of the complete paw. Print area is the surface area of the complete print. Max Intensity is the maximum Intensity of the complete paw. Mean intensity is the mean Intensity of the complete paw.

[1] = test system: Shank3-Adnp-actin interactions; assay: Actin co-immunoprecipitations from mouse brain extracts
From the text: De novo heterozygous mutations in ADNP reproduced the autistic ADNP syndrome. ADNP mutations impair microtubule (MT) function, essential for synaptic activity. The ADNP MT-associating fragment NAPVSIPQ (NAP) (SEQ ID NO 2) contains an MT end-binding protein interacting domain, SxIP (mimicking the active-peptide, SKIP, SEQ ID NO 21). The inventors hypothesized that not all ADNP mutations are similarly deleterious and that the NAPV portion of NAPVSIPQ is biologically active. Using the eukaryotic linear motif (ELM) resource, the inventors identified a Src homology 3 (SH3) domain-ligand association site in NAP responsible for controlling signaling pathways regulating the cytoskeleton, namely NAPVSIP (SEQ ID NO: 2). Altogether, the inventors mapped multiple SH3-binding sites in ADNP. […] Site-directed-mutagenesis, abolishing the p.Lys408Valfs*31 SH3-binding motif, produced MT toxicity. […] Lastly, SH3 and multiple ankyrin repeat domains protein 3 (SHANK3), a major autism gene product, interact with the cytoskeleton through an actin-binding motif to modify behavior.

[2] = test system: SHANK3 mouse model (InsG3680 mutation); assay: Open field behavior; assay type: in vivo; conditions: intranasal, once daily, five days a week for a month
Procedure: (§1) To this end, mice with the ASD-linked InsG3680 mutation were used. Two behavioral assessments were performed on make mice: • 1) Open field behavior attesting to anxiety and depression (Open field behavioral assessment technology was previously described, e.g.); and • 2) Social recognition behavior, related to autistic traits (the social recognition test was previously described, e.g..
This surprising finding is of importance as there is a psychiatric illness and regression in individuals with Phelan-McDermid syndrome.

Adnp+/− mouse = test system: Adnp+/− mouse; design: key: corrections by NAP treatment (+); conditions: second symbol of cell, cited from earlier work
[3] = Ivashko-Pachima and Gozes 2020; cited from earlier work
[4] = test system: adult compromised patients; conditions: cited from earlier work
male Tyr mice = assay: Visual evoked potentials (VEP); assay type: in vivo, mouse; design: key to NAP efficacy: visual evoked potential: corrections by NAP treatment (+)
Procedure: VEP—5.72±0.52-week-old male mice were used for VEP measurements. Animals were treated for 3 days with 0.1 ml S.C saline, recorded, and then followed by 4 daily S.C doses of either 1 μg NAP (in 0.1 ml saline) or 0.1 ml saline followed by another VEP recording.

[5] = test system: SHANK3 mouse model (InsG3680 mutation); assay: Social recognition test; assay type: in vivo; conditions: NAP-treated SHANK3 mouse model
Procedure: as §1
In the social recognition test, the results measured both time exploring and frequency exploring the mouse or cup, either directly or in the chamber where the mouse or cup only are present (FIG. 13).

SMILES: CC[C@H](C)[C@H](NC(=O)[C@H](CO)NC(=O)[C@@H](NC(=O)[C@@H]1CCCN1C(=O)[C@H](C)NC(=O)[C@@H](N)CC(N)=O)C(C)C)C(=O)N1CCC[C@H]1C(=O)N[C@@H](CCC(N)=O)C(=O)O [NAP, NAPVSIPQ]
- Grooming frequency (SHANK3 mice): higher grooming frequency than did NAP-treated SHANK3 mice
- Front base of support (Tyr mice; Tyr mice, males and females): NAP correcting this phenotype in males
- NAP efficacy: motor impediments (Tyr mice; Tyr mouse (gait), first symbol of cell): +/(gait)+
- Gait parameters (Tyr mice; WT mice, data not shown): No major NAP effect
- Intensity parameters (gait) (Tyr mice; female Tyr mice): significant NAP correction
- Swing speed and swing duration (Tyr mice; female Tyr mice): ameliorated by NAP
- Print width (Tyr mice; female Tyr mice, FIG. 1F): significant NAP correction effect
- Print length and area (Tyr mice; male Tyr mice, daily intranasal NAP): significant NAP recovery
- Shank3-Adnp-actin interactions [1]: NAP-mediated normalization
- Cumulative duration in the center (open field) [2]: significantly increased
- NAP efficacy: cognitive impairments, behavioral deficits (Adnp+/− mouse; Adnp+/− mouse (8)): +(odor)/+(8)
- NAP efficacy: axonal transport (Adnp+/− mouse; Adnp+/− mouse): +/+
- NAP efficacy: gene expression patterns (Adnp+/− mouse; Adnp+/− mouse): +/+
- NAP efficacy: global developmental delays (Adnp+/− mouse; Adnp+/− mouse): +/+
- NAP efficacy: microbiota (Adnp+/− mouse; Adnp+/− mouse): +/+
- NAP efficacy: motor impediments (Adnp+/− mouse; Adnp+/− mouse): +/(gait)+
- NAP efficacy: short stature (Adnp+/− mouse; Adnp+/− mouse): +
- NAP efficacy: speech impediments (Adnp+/− mouse; Adnp+/− mouse): +/+ (syntax)
- NAP efficacy: synaptic structural alterations (Adnp+/− mouse; Adnp+/− mouse): +/+
- NAP efficacy: tauopathy, hyperphosphorylated Tau deposits (Adnp+/− mouse; Adnp+/− mouse): +/+
- Cell penetration [3]: bioavailable by endocytosis
- Clinical efficacy ([4]; adult patients): enhancement of cognitive function and functional activities of daily living
- Safety and tolerance ([4]; hundreds of adult compromised patients): proven safety and tolerance
- NAP efficacy: visual evoked potential (male Tyr mice; Tyr mouse, first symbol of cell): +/+
- VEP traces (male Tyr mice; male Tyr mice, 4 consecutive daily doses): normalizing these effects
- Decrease of VEP P2 AUC (male Tyr mice; male Tyr mice, 4 daily s.c. doses of 1 μg NAP, 100, 300 and 3000 mcd): 1.6-2.3 fold
- VEP N2 AUC (male Tyr mice; male Tyr mice, 100, 300 and 3000 mcd): same significant change
- VEP P3 AUC (male Tyr mice; male Tyr mice, 300 and 3000 mcd): significant NAP effect
- Social recognition, mouse vs cup exploration [5]: normalization of behavior
